Experiments:
[1] = system: Human iPS cells (201B7); test: Expression of transcription factors in iPS cells cultured with single growth-promoting agents (RT-PCR, electrophoresis); format: cell-based; settings: iPS cells in iPSm(−) medium with the growth-promoting agent added; PCR and electrophoresis, FIG. 2
Experimental: Reverse transcriptase (Life Technologies Japan Ltd.) was used to synthesize cDNAs of iPS cells, fetal hepatic cells and adult hepatic cells from 3 μg of RNA. The cDNAs were subjected to polymerase chain reaction (PCR) using the following primers to GATA4, FOXA2, HEX, C/EBPα and C/EBPβ, respectively, and to electrophoresis using 2% low-melting agarose (Lonza) and 1×TAE, for investigations on the expression of GATA4, FOXA2, HEX, C/EBPα and C/EBNβ in the iPS cells, fetal hepatic cells and adult hepatic cells.
After electrophoresis, the 2% low-melting agarose was irradiated with ultraviolet rays at 254 nm from a UV transilluminator (UVP LLC, NLMS-20E), and a Polaroid photograph (FUJIFILM Corporation, FP-3000B) thereof was taken with a gel camera (Funakoshi DS-300) to analyze an electrophoretic pattern.
PCR cycles performed included 30 cycles of thermal denaturation: 1 minute at 94° C.; annealing: 1 minute and elongation reaction: 1 minute at 72° C.
Human iPS cells (201B7, RIKEN cell bank) were seeded onto a matrigel-coated 6-well plate, and cultured in a feeder-less medium, ReproFF (trade name, Reprocell Inc.) for culture of stem cells maintained in an undifferentiated state, without using a feeder cell, under conventional conditions: 37° C. and 5% carbon dioxide.
A medium obtained by adding a 20% knock-out serum replacement (Life Technologies Japan Ltd.), 10% Minimum Essential Amino Acids (Life Technologies Japan Ltd.), 2 mM of L-glutamine (Life Technologies Japan Ltd.) and 1 mM of 2-mercaptoethanol to a D-MEM/F12 medium (Dulbecco's Modified Eagle Medium-F12 medium, Sigma-Aldrich Japan) was used as an iPSm(−) medium.
The following growth-promoting agents were added to the iPSm(−) medium, and SOX-17, GATA6, FOXA2, GATA4, HEX, TTR and C/EBPα were expressed in a manner similar to that in Experiment 1.
As the growth-promoting agents, added were bFGF (basic fibroblast growth factor, Wako Pure Chemical Industries, Ltd.), BMP (bone morphogenetic protein)-4 (Wako Pure Chemical Industries, Ltd.), oncostatinM (Wako Pure Chemical Industries, Ltd.), an epidermal growth factor (EGF, Wako Pure Chemical Industries, Ltd.), a nerve growth factor (NGF, R & D Systems, Inc.), TGF-β, (transform growth factor-β, R& D Systems, Inc.), retinoic acid (Sigma-Aldrich Japan) and a hepatic cell growth factor (HGF, Sigma-Aldrich Japan).
RT-PCR to SOX-17, GATA6 and TTR was performed under the following conditions.

[2] = system: Human iPS cells (201B7); test: Induction of differentiation into hepatic progenitor cells by growth-promoting agents (real-time quantitative PCR of AFP and DLK-1); format: cell-based; settings: iPS cells transfected with FOXA2, GATA4, HEX, C/EBPα three times every three days, 8th day, n=3, ± standard error, ReproFF lane = 100; for α-fetoprotein/RPL19 ratio (mRNA expression): FIG. 3-1; for DLK-1/RPL19 ratio (mRNA expression): FIG. 3-2
Experimental: Human iPS cells (201B7, RIKEN cell bank) were seeded onto a matrigel-coated 6-well plate, and cultured in a medium, ReproFF in accordance with a conventional method under the following conditions: 37° C. and 5% carbon dioxide. A lipofection reagent, Lipofectamine LTX (registered trade mark, Life Technologies Japan Ltd.) was used to transfect 0.5 μg of expression plasmids of FOXA2, GATA4, HEX and C/EBPα, respectively.
As the expression vectors of the transcription factors, used were expression vectors (human TrueClone, OriGene Technologies, Inc., COSMO BIO co., ltd.) in which full-length cDNAs of human FOXA2, GATA4, HEX and CEBPA were each incorporated in the downstream of a potent-promoting agent derived from cytomegalovirus. In the human FOXA2 expression vector (catalog No. sc122913), the full-length cDNA coding human FoxA2 protein was inserted between EcoR1 and Sal1 restricted sites of pCMV6-XL5. In the human GATA4 expression vector (catalog No. sc124037), the full-length cDNA coding human GATA4 protein was inserted between EcoR1 and Sal1 restricted sites of pCMV6-XL4. In the human HEX expression vector (catalog No. sc321626), the full-length cDNA coding human HHEX protein was inserted between Sgf1 and Mlu1 restricted sites of pCMV6-AC. In the human CEBPA expression vector (catalog No. sc303472), the full-length cDNA coding human CEBPA protein was inserted between EcoR1 and Sal1 restricted sites of pCMV6-XL5.
Immediately before transfection, the medium to be used was changed to a medium obtained by adding oncostatin M (Wako Pure Chemical Industries, Ltd.), EGF (Wako Pure Chemical Industries, Ltd.) and retinoic acid (Wako Pure Chemical Industries, Ltd.) to the iPSm(−) medium. Here, the iPSm(−) medium corresponds to a medium obtained by eliminating a basic fibroblast growth factor from a medium for feeder cells of human iPS cells recommended by CiRA at Kyoto University. […]
The transfection of the transcription factors was repeated three times every three days, and, on the 8th day, RNA was extracted using Isogen (NIPPON GENE CO., LTD.). […] Then, the amount of expressed α-fetoprotein (AFP), which was an indicator of hepatic progenitor cells, was analyzed by the real-time quantitative PCR method using a real-time PCR analysis reagent, Fast SYBR Green Master Mix (trade name, Life Technologies Japan Ltd.). […] The amounts of α-fetoprotein (AFP) and Delta-like (DLK)-1 expressed were quantitatively determined as an indicator of hepatic progenitor cells by employing ribosome-related protein (RLP19) as internal standard (each group, n=3).
The real-time quantitative PCR was performed by using the following primers through a PCR cycle including 30 cycles of 5 seconds at 95° C. and 20 seconds at 60° C.

| Compound | expression of C/EBPα [1] | expression of FOXA2 [1] | expression of GATA4 [1] | expression of GATA6 [1] | expression of HEX [1] | α-fetoprotein/RPL19 ratio (mRNA expression) [2] | DLK-1/RPL19 ratio (mRNA expression) [2] |
| --- | --- | --- | --- | --- | --- | --- | --- |
| TGF-β: transform growth factor-β, R&D Systems | not observed to be expressed | not observed to be expressed | not observed to be expressed | observed to be expressed | not observed to be expressed | – | – |
| CC1=C(/C=C/C(C)=C/C=C/C(C)=C/C(=O)O)C(C)(C)CCC1 [retinoic acid] | – | – | – | – | – | 133±58 | 79±40 |
| C[C@@H]1C[C@H]2[C@@H]3CCC4=CC(=O)C=C[C@]4(C)[C@@]3(F)[C@@H](O)C[C@]2(C)[C@@]1(O)C(=O)CO [dexamethasone] | – | – | – | – | – | 50.1±5 | 208±54 |
